Laboratory results as given in ChEMBL document CHEMBL1137723, “Non-imidazole histamine H3 ligands, part IV: SAR of 1-[2-thiazol-5-yl-(2-aminoethyl)]-4-n-propylpiperazine derivatives” (Eur J Med Chem, 2009).

Key:
Histamine H3 receptor = Histamine H3 receptor (Cavia porcellus, UniProt Q9JI35); assay: Antagonist activity at histamine H3 receptor in guinea pig jejunum assessed as electrically evoked contractions; assay type: functional, tissue-based; conditions: read-out: pA2 (converted)
Histamine H1 receptor = Histamine H1 receptor (Cavia porcellus, UniProt P31389); assay: Antagonist activity at histamine H1 receptor in guinea pig ileum assessed as histamine-induced contractions; assay type: functional, tissue-based; conditions: read-out: pA2 (converted)
Histamine H1 receptor, sequence (P31389 whole entry): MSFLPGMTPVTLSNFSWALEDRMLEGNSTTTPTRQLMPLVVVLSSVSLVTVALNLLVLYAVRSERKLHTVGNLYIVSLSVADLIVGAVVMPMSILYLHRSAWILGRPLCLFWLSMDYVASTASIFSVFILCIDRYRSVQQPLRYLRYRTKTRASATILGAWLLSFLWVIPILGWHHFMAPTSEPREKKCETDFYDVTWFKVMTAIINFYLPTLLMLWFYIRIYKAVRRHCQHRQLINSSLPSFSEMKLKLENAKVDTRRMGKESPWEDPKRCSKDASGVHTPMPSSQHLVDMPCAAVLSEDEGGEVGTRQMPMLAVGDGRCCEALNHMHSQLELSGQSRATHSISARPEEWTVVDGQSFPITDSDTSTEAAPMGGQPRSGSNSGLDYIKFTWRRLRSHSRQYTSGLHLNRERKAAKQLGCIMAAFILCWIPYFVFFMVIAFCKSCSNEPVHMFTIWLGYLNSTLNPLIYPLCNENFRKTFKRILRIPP

Histamine H3 receptor, sequence (Q9JI35 whole entry): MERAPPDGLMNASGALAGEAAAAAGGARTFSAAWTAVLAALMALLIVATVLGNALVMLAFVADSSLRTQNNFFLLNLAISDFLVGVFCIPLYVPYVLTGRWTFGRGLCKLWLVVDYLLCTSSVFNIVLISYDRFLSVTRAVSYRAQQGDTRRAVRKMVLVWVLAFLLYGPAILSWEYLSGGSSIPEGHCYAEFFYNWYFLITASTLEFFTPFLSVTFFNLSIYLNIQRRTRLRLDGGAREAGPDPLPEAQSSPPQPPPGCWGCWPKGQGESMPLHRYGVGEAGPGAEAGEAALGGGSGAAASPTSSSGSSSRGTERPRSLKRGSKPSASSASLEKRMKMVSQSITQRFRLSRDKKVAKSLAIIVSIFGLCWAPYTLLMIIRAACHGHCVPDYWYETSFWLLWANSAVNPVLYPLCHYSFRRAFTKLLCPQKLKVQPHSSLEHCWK

Row | Structure (SMILES) | Kb (Histamine H3 receptor) | Kb (Histamine H1 receptor)
1 | C=CCN1CCN(c2nc3ccccc3s2)CC1 | 79.4 nM | 
2 | CCCN1CCN(c2ncc(CCN)s2)CC1 | 64.6 nM | 
3 | CCCN1CCN(c2nc3cnccc3[nH]2)CC1 | 56.2 nM | 
4 | CCCN1CCN(c2ncc(CCN(C)Cc3ccccc3)s2)CC1 | 17.4 nM | > 100000 nM
5 | CCCN1CCN(c2ncc(CCN(C)CCCc3ccccc3)s2)CC1 | 5.37 nM | > 100000 nM
6 | CCCN1CCN(c2ncc(CCN(C)CCCCCc3ccccc3)s2)CC1 | 56.2 nM | 
7 | CCCN1CCN(c2ncc(CCNC=O)s2)CC1 | 117 nM | 
8 | CCCN1CCN(c2nc3cnccc3o2)CC1 | 126 nM | 
9 | CCCN1CCN(c2ncc(CCNC)s2)CC1 | 63.1 nM | 
10 | CCCN1CCN(c2ncc(CCN(C)C=O)s2)CC1 | 55 nM | 
11 | CCCN1CCN(c2ncc(CCN(C)C)s2)CC1 | 16.6 nM | > 100000 nM
12 | CCCCC(=O)N(C)CCc1cnc(N2CCN(CCC)CC2)s1 | 95.5 nM | 
13 | CCCN1CCN(c2nc3ccccc3s2)CC1 | 69.2 nM | 
14 | CCCCCN(C)CCc1cnc(N2CCN(CCC)CC2)s1 | 89.1 nM | 
15 | CCCN(C)CCc1cnc(N2CCN(CCC)CC2)s1 | 29.5 nM | > 100000 nM
16 | CCCN1CCN(c2ncc(CCN(C)C(=O)CC)s2)CC1 | 43.7 nM | 
17 | S=C(NC1CCCCC1)N1CCC(c2cnc[nH]2)CC1 [THIOPERAMIDE] | 0.871 nM | 
